Assays:
Assay type in all cases: cell-based
[1] = tested on: pS6K1 T389 and pAkt S473 in PC3 cells; assay: Western blot based pS6K1 and pAKT assay at 24 and 48 hour timepoints
Description: Example 57: Western Blot Based pS6K1 and pAKT Assay at 24 and 48 Hour Timepoints
Assay Protocol: • 1. Seed six well plate with 500,000 PC3 cells per well and incubate for 20˜24 hour. • 2. Add compounds into the cell plate. Incubate for 24 to 48 hours. • 4. Plate is placed on ice and the media is removed via aspiration. The wells are washed with 1 mL of 1x PBS and then fully aspirated. • 5. 110 μL of 1% Triton Lysis Buffer is added and each well is scraped vigorously. • 6. Cell homogenates are transferred to 1.5 mL eppendorf tubes on ice and spun down at 4° C. for 10 minutes at 10,000 rpm. • 7. Protein concentration of resulting cell lysates were quantified utilizing a Bradford assay and the samples run analyzed via Western blot on 4-12% Bis/Tris gels with 1×MES buffer. • 8. The gels were transferred onto membranes at 50V for 100 minutes, blocked with Odyssey Blocking buffer for 30 minutes then incubated overnight with primary antibody (pS6K1 T389 Rabbit or pAkt S473 Rabbit) overnight at 4° C. on a rotator. • 9. The membranes were washed 3× with TBS-T with a 5 minute incubation between each wash then incubated with secondary antibody (LiCor IRDye 800 Donkey Anti Rabbit) for at least 30 minutes. • 10. The membranes were washed 3× with TBS-T with a 5 minute incubation between each wash. • 11. The gels were then incubated for 5 minutes with PBS at room temperature then imaged using a Li-Cor.
Compounds that are not selective by comparing pS6K1 and pAKT IC50 by kinase assays are indicated by “NO” in the “mTORC1 selective @ 90 min” column of Table 4. […] Compounds that are not selective at the 24 hrs mark are indicated by “NO” in the “mTORC1 selective @ 24 hrs” column of Table 4. “N/A” stands for “not assayed” and “N/C” stands for “not calculated”.

[2] = tested on: p-p70 S6 Kinase (Thr389) in MCF-7 cells; assay: AlphaLISA Ultra pS6K1 assay; conditions: Homo sapiens, 1.5 h; MCF7 cells, 90 min
In short: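 Phospho-S6K1 (Thr389) quantified by AlphaLISA Ultra read-out (2 h acceptor, then 2 h donor beads) in lysates of MCF-7 cells. Cells were plated 20–24 h before, refed 2 h, exposed to compounds for 90 min at 0.5% final DMSO, and lysates stored at −80 °C.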

[3] = tested on: mTORC1 over mTORC2; assay: mTORC1 over mTORC2 selectivity by comparing pS6K1 and pAKT IC50; conditions: by comparing pS6K1 and pAKT IC50, 90 min
In short: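 MCF-7 cells were treated with compounds (0.5% final DMSO) for 90 minutes in one protocol and 2 hours in the other, then lysed. Phospho-signal in lysates was read by bead-based donor/acceptor proximity assay. pS6K1 and pAKT IC50 values were compared to judge mTORC1 over mTORC2 selectivity, at 90 min and at 24 hrs.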

[4] = tested on: p-Akt 1/2/3 (Ser473) in MCF-7 cells; assay: AlphaLISA Ultra pAKT assay; conditions: Homo sapiens, 1.5 h; MCF7 cells, 90 min
In short: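 MCF-7 cells (16,000˜20,000 per well in 36 μL medium) were seeded in Corning 3701 plates for 20˜24 hour, refreshed with new medium for 90 minutes, then given 12 μL of 4× compound (0.5% final DMSO). Cells were lysed with 2× lysis buffer, and lysate was analyzed by AlphaLISA Ultra pAKT using acceptor and donor beads, read on an EnSpire reader.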

| IC50 [2] [µM] | IC50 [4] [µM] | Compound | mTORC1 selective @ 24 hrs [1] | mTORC1 selective @ 90 min [3] |
| --- | --- | --- | --- | --- |
| < 0.001 |  | CO[C@@H]1/C(C)=C/[C@@H](C)C(=O)C[C@@H]([C@H](C)C[C@@H]2CC[C@@H](OCCCO)[C@H](OC)C2)OC(=O)[C@@H]2CCCCN2C(=O)C(=O)[C@]2(O)O[C@@H](CC[C@H]2C)C[C@H](OCCOC2COC2)/C(C)=C/C=C/C=C/[C@@H](C)C[C@@H](C)C(=O)[C@@H]1OC [I-45, (23E,25E,27E,28E,35R,36S,37R,38R,40S,42S,44S,45S,47R,48R,57R)-47,57-dihydroxy-45-[(1R)-2-[(1S,3R,4R)-4-(3-hydroxypropoxy)-3-methoxy-cyclohexyl]-1-methyl-ethyl]-48-methoxy-35,36,37,38,49,50-hexamethyl-44-[2-(oxetan-3-yloxy)ethoxy]-68,69-dioxa-58-azatricyclohexatriaconta-23,25,27(49),28(50)-tetraene-51,52,53,54,55-pentone] | Yes |  |
| 0.001 to 0.01 |  | COCCOCCO[C@H]1C[C@@H]2CC[C@@H](C)[C@@](O)(O2)C(=O)C(=O)N2CCCC[C@H]2C(=O)O[C@H]([C@H](C)C[C@@H]2CC[C@@H](OCCOC)[C@H](OC)C2)CC(=O)[C@H](C)/C=C(\C)[C@@H](OC)[C@@H](OC)C(=O)[C@H](C)C[C@H](C)/C=C/C=C/C=C/1C [I-47, (24E,26E,28E,29E,37R,38S,39R,40R,42S,44S,46S,47S,48R,49R,58R)-58-hydroxy-48,49-dimethoxy-46-[2-(2-methoxyethoxy)ethoxy]-47-[(1R)-2-[(1S,3R,4R)-3-methoxy-4-(2-methoxyethoxy)cyclohexyl]-1-methyl-ethyl]-37,38,39,40,50,51-hexamethyl-66,67-dioxa-59-azatricyclohexatriaconta-24,26,28(50),29(51)-tetraene-52,53,54,55,56-pentone] | Yes |  |
| 0.1 to 1 |  | CO[C@@H]1/C(C)=C/[C@@H](C)C(=O)C[C@@H]([C@H](C)C[C@@H]2CC[C@@H](OCCO)[C@H](OC)C2)OC(=O)[C@@H]2CCCCN2C(=O)C(=O)[C@]2(O)O[C@@H](CC[C@H]2C)C[C@H](OCCOCCOC2COC2)/C(C)=C/C=C/C=C/[C@@H](C)C[C@@H](C)C(=O)[C@@H]1OC [I-62, (1R,9S,12S,15R,16E,18R,19R,21R,23S,24E,26E,28E,30S,32S,35R)-1-hydroxy-12-[(1R)-2-[(1S,3R,4R)-4-(2-hydroxyethoxy)-3-methoxy-cyclohexyl]-1-methyl-ethyl]-18,19-dimethoxy-15,17,21,23,29,35-hexamethyl-30-[2-[2-(oxetan-3-yloxy)ethoxy]ethoxy]-11,36-dioxa-4-azatricyclo[30.3.1.0^4,9]hexatriaconta-16,24,26,28-tetraene-2,3,10,14,20-pentone] | No |  |
| 0.001 to 0.01 |  | COCCO[C@@H]1CC[C@@H](C[C@@H](C)[C@@H]2CC(=O)[C@H](C)/C=C(\C)[C@@H](O)[C@@H](OC)C(=O)[C@H](C)C[C@H](C)/C=C/C=C/C=C(\C)[C@@H](OC[C@H]3COCCO3)C[C@@H]3CC[C@@H](C)[C@@](O)(O3)C(=O)C(=O)N3CCCC[C@H]3C(=O)O2)C[C@H]1OC [I-64, (1R,9S,12S,15R,16E,18R,19R,21R,23S,24E,26E,28E,30S,32S,35R)-30-[[(2R)-1,4-dioxan-2-yl]methoxy]-1,18-dihydroxy-19-methoxy-12-[(1R)-2-[(1S,3R,4R)-3-methoxy-4-(2-methoxyethoxy)cyclohexyl]-1-methyl-ethyl]-15,17,21,23,29,35-hexamethyl-11,36-dioxa-4-azatricyclo[30.3.1.0^4,9]hexatriaconta-16,24,26,28-tetraene-2,3,10,14,20-pentone] | Yes |  |
| 0.001 to 0.01 | ≥ 1 | CO[C@@H]1C[C@H](C[C@@H](C)[C@@H]2CC(=O)[C@H](C)/C=C(\C)[C@@H](O)[C@@H](OC)C(=O)[C@H](C)C[C@H](C)/C=C/C=C/C=C(\C)[C@@H](OC[C@@H]3COCCO3)C[C@@H]3CC[C@@H](C)[C@@](O)(O3)C(=O)C(=O)N3CCCC[C@H]3C(=O)O2)CC[C@H]1OCCO [I-85, (1R,9S,12S,15R,16E,18R,19R,21R,23S,24E,26E,28E,30S,32S,35R)-30-[[(2S)-1,4-dioxan-2-yl]methoxy]-1,18-dihydroxy-12-[(1R)-2-[(1S,3R,4R)-4-(2-hydroxyethoxy)-3-methoxy-cyclohexyl]-1-methyl-ethyl]-19-methoxy-15,17,21,23,29,35-hexamethyl-11,36-dioxa-4-azatricyclo[30.3.1.04,9]hexatriaconta-16,24,26,28-tetraene-2,3,10,14,20-pentone] | Yes | Yes |

Second part, the molecule before the results:

| Compound | IC50 [2] [µM] | IC50 [4] [µM] | mTORC1 selective @ 24 hrs [1] | mTORC1 selective @ 90 min [3] |
| --- | --- | --- | --- | --- |
| COCCOCCO[C@H]1C[C@@H]2CC[C@@H](C)[C@@](O)(O2)C(=O)C(=O)N2CCCC[C@H]2C(=O)O[C@H]([C@H](C)C[C@@H]2CC[C@@H](O)[C@H](OC)C2)CC(=O)[C@H](C)/C=C(\C)[C@@H](OC)[C@@H](OC)C(=O)[C@H](C)C[C@H](C)/C=C/C=C/C=C/1C [I-49, (23E,25E,27E,28E,34R,35S,36R,37R,39S,41S,43S,44S,45R,46R,55R)-55-hydroxy-44-[(1R)-2-[(1S,3R,4R)-4-hydroxy-3-methoxy-cyclohexyl]-1-methyl-ethyl]-45,46-dimethoxy-43-[2-(2-methoxyethoxy)ethoxy]-34,35,36,37,47,48-hexamethyl-64,65-dioxa-56-azatricyclohexatriaconta-23,25,27(47),28(48)-tetraene-49,50,51,52,53-pentone] | 0.001 to 0.01 |  | Yes |  |
| COCCO[C@@H]1CC[C@@H](C[C@@H](C)[C@@H]2CC(=O)[C@H](C)/C=C(\C)[C@@H](O)[C@@H](OC)C(=O)[C@H](C)C[C@H](C)/C=C/C=C/C=C(\C)[C@@H](OC[C@@H]3COCCO3)C[C@@H]3CC[C@@H](C)[C@@](O)(O3)C(=O)C(=O)N3CCCC[C@H]3C(=O)O2)C[C@H]1OC [I-66, (1R,9S,12S,15R,16E,18R,19R,21R,23S,24E,26E,28E,30S,32S,35R)-30-[[(2S)-1,4-dioxan-2-yl]methoxy]-1,18-dihydroxy-19-methoxy-12-[(1R)-2-[(1S,3R,4R)-3-methoxy-4-(2-methoxyethoxy)cyclohexyl]-1-methyl-ethyl]-15,17,21,23,29,35-hexamethyl-11,36-dioxa-4-azatricyclo[30.3.1.0^4,9]hexatriaconta-16,24,26,28-tetraene-2,3,10,14,20-pentone] | 0.001 to 0.01 |  | Yes |  |
| COCCO[C@@H]1CC[C@@H](C[C@@H](C)[C@@H]2CC(=O)[C@H](C)/C=C(\C)[C@@H](OC)[C@@H](OC)C(=O)[C@H](C)C[C@H](C)/C=C/C=C/C=C(\C)[C@@H](OCCOCCOC3COC3)C[C@@H]3CC[C@@H](C)[C@@](O)(O3)C(=O)C(=O)N3CCCC[C@H]3C(=O)O2)C[C@H]1OC [I-69, (1R,9S,12S,15R,16E,18R,19R,21R,23S,24E,26E,28E,30S,32S,35R)-1-hydroxy-18,19-dimethoxy-12-[(1R)-2-[(1S,3R,4R)-3-methoxy-4-(2-methoxyethoxy)cyclohexyl]-1-methyl-ethyl]-15,17,21,23,29,35-hexamethyl-30-[2-[2-(oxetan-3-yloxy)ethoxy]ethoxy]-11,36-dioxa-4-azatricyclo[30.3.1.0^4,9]hexatriaconta-16,24,26,28-tetraene-2,3,10,14,20-pentone] | ≥ 1 |  | No |  |
| COCCO[C@@H]1CC[C@@H](C[C@@H](C)[C@@H]2CC(=O)[C@H](C)/C=C(\C)[C@@H](OC)[C@@H](OC)C(=O)[C@H](C)C[C@H](C)/C=C/C=C/C=C(\C)[C@@H](OCCOC3COC3)C[C@@H]3CC[C@@H](C)[C@@](O)(O3)C(=O)C(=O)N3CCCC[C@H]3C(=O)O2)C[C@H]1OC [I-83, (1R,9S,12S,15R,16E,18R,19R,21R,23S,24E,26E,28E,30S,32S,35R)-1-hydroxy-18,19-dimethoxy-12-[(1R)-2-[(1S,3R,4R)-3-methoxy-4-(2-methoxyethoxy)cyclohexyl]-1-methyl-ethyl]-15,17,21,23,29,35-hexamethyl-30-[2-(oxetan-3-yloxy)ethoxy]-11,36-dioxa-4-azatricyclo[30.3.1.0^4,9]hexatriaconta-16,24,26,28-tetraene-2,3,10,14,20-pentone] | ≥ 1 | ≥ 1 | No | No |
